# Patent US4068070A, “α-Cyanoamine compounds and a process for producing the same” (Fuji Chemical Industry Co., Ltd., priority 1974, dated 1978)
# Assays:
# Format in all cases: in vivo, mongrel adult dogs
# [1] = system: arterial mean blood pressure; test: Effects on arterial mean blood pressure
# Procedure, shortened: (§1)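 Open-chest, pentobarbital-anesthetized mongrel dogs (male and female, about 10 kg) received compounds intravenously via the brachial vein; vehicles were 0.2% CMC suspension, HCl solution (pH 6) or physiological saline. Mean arterial pressure came from a carotid-aortic cannula transducer, aortic flow from an electromagnetic flowmeter at the aortic root.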
# aortic blood flow = test: Effects on aortic blood flow
# Procedure, shortened: as §1
# coronary sinus out flow = test: Effects on coronary sinus out flow
# Procedure, shortened: (§2)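 Dog, mongrel, ~10 kg, thoracotomized, pentobarbital anesthesia. Dosing i.v. (brachial), vehicle CMC 0.2%, HCl pH 6 or saline. Coronary sinus outflow by electromagnetic flowmeter, coronary sinus pO2 by macro electrode, both via Morawitz cannulation.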
# [2] = system: coronary sinus oxygen tension; test: Effects on coronary sinus oxygen tension
# Procedure, shortened: as §2
# heart rate = test: Effects on heart rate
# Procedure, shortened: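 Adult mongrel dogs of both sexes were anesthetized with pentobarbital and thoracotomized. Test agents, suspended or dissolved in 0.2% CMC, pH 6 HCl solution or saline, were injected intravenously into the brachial vein. Hemodynamic and coronary sinus parameters were then recorded.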
smiles,measurement,setting,value
COc1ccc(C(C#N)N2CCNCC2)cc1OC (stereo not shown) [Compound F],"Changes (%) of basal values, arterial mean blood pressure","[1]; 2.0 mg/kg i.v., 1 min",-1.3%
same,"Changes (%) of basal values, arterial mean blood pressure","[1]; 2.0 mg/kg i.v., 5 min",-4.9%
same,"Changes (%) of basal values, arterial mean blood pressure","[1]; 2.0 mg/kg i.v., 10 min",-3.3%
same,"Changes (%) of basal values, arterial mean blood pressure","[1]; 2.0 mg/kg i.v., 20 min",-2.1%
same,"Changes (%) of basal values, arterial mean blood pressure","[1]; 2.0 mg/kg i.v., 30 min",-0.4%
same,"Changes (%) of basal values, arterial mean blood pressure","[1]; 2.0 mg/kg i.v., 40 min",0%
same,"Changes (%) of basal values, arterial mean blood pressure","[1]; 2.0 mg/kg i.v., imm.",+2.3%
same,"Changes (%) of basal values, arterial mean blood pressure","[1]; 6.0 mg/kg i.v., 1 min",+15.8%
same,"Changes (%) of basal values, arterial mean blood pressure","[1]; 6.0 mg/kg i.v., 5 min",-9.3%
same,"Changes (%) of basal values, arterial mean blood pressure","[1]; 6.0 mg/kg i.v., 10 min",-12.5%
same,"Changes (%) of basal values, arterial mean blood pressure","[1]; 6.0 mg/kg i.v., 20 min",-10.0%
same,"Changes (%) of basal values, arterial mean blood pressure","[1]; 6.0 mg/kg i.v., 30 min",-5.2%
same,"Changes (%) of basal values, arterial mean blood pressure","[1]; 6.0 mg/kg i.v., 40 min",-2.8%
same,"Changes (%) of basal values, arterial mean blood pressure","[1]; 6.0 mg/kg i.v., imm.",+16.0%
same,Effects on arterial mean blood pressure (in words),"[1]; i.v., anesthetized dogs","an increase in blood pressure was observed immediately after administration, but thereafter, a long duration hypotensive effect was observed"
same,"Changes (%) of basal values, aortic blood flow","aortic blood flow; 2.0 mg/kg i.v., 1 min",+0.7%
same,"Changes (%) of basal values, aortic blood flow","aortic blood flow; 2.0 mg/kg i.v., 5 min",-4.1%
same,"Changes (%) of basal values, aortic blood flow","aortic blood flow; 2.0 mg/kg i.v., 10 min",-1.2%
same,"Changes (%) of basal values, aortic blood flow","aortic blood flow; 2.0 mg/kg i.v., 20 min",0%
same,"Changes (%) of basal values, aortic blood flow","aortic blood flow; 2.0 mg/kg i.v., 30 min",0%
same,"Changes (%) of basal values, aortic blood flow","aortic blood flow; 2.0 mg/kg i.v., 40 min",0%
same,"Changes (%) of basal values, aortic blood flow","aortic blood flow; 2.0 mg/kg i.v., imm.",+9.2%
same,"Changes (%) of basal values, aortic blood flow","aortic blood flow; 6.0 mg/kg i.v., 1 min",+12.1%
same,"Changes (%) of basal values, aortic blood flow","aortic blood flow; 6.0 mg/kg i.v., 5 min",-2.2%
same,"Changes (%) of basal values, aortic blood flow","aortic blood flow; 6.0 mg/kg i.v., 10 min",-2.0%
same,"Changes (%) of basal values, aortic blood flow","aortic blood flow; 6.0 mg/kg i.v., 20 min",-1.2%
same,"Changes (%) of basal values, aortic blood flow","aortic blood flow; 6.0 mg/kg i.v., 30 min",0%
same,"Changes (%) of basal values, aortic blood flow","aortic blood flow; 6.0 mg/kg i.v., 40 min",0%
same,"Changes (%) of basal values, aortic blood flow","aortic blood flow; 6.0 mg/kg i.v., imm.",+20.5%
same,Effects on aortic blood flow (in words),"aortic blood flow; i.v., anesthetized dogs","an increase in blood flow immediately after administration, followed by a decrease in blood flow"
same,"Changes(%) of basal values, coronary sinus out flow","coronary sinus out flow; 2.0 mg/kg i.v., 1 min",+2.9%
same,"Changes(%) of basal values, coronary sinus out flow","coronary sinus out flow; 2.0 mg/kg i.v., 5 min",-1.7%
same,"Changes(%) of basal values, coronary sinus out flow","coronary sinus out flow; 2.0 mg/kg i.v., 10 min",-4.4%
same,"Changes(%) of basal values, coronary sinus out flow","coronary sinus out flow; 2.0 mg/kg i.v., 20 min",-3.1%
same,"Changes(%) of basal values, coronary sinus out flow","coronary sinus out flow; 2.0 mg/kg i.v., 30 min",-1.0%
same,"Changes(%) of basal values, coronary sinus out flow","coronary sinus out flow; 2.0 mg/kg i.v., 40 min",-0.2%
same,"Changes(%) of basal values, coronary sinus out flow","coronary sinus out flow; 2.0 mg/kg i.v., imm.",+12.4%
same,"Changes(%) of basal values, coronary sinus out flow","coronary sinus out flow; 6.0 mg/kg i.v., 1 min",+68.6%
same,"Changes(%) of basal values, coronary sinus out flow","coronary sinus out flow; 6.0 mg/kg i.v., 5 min",+7.4%
same,"Changes(%) of basal values, coronary sinus out flow","coronary sinus out flow; 6.0 mg/kg i.v., 10 min",+0.1%
same,"Changes(%) of basal values, coronary sinus out flow","coronary sinus out flow; 6.0 mg/kg i.v., 20 min",-8.2%
same,"Changes(%) of basal values, coronary sinus out flow","coronary sinus out flow; 6.0 mg/kg i.v., 30 min",-5.3%
same,"Changes(%) of basal values, coronary sinus out flow","coronary sinus out flow; 6.0 mg/kg i.v., 40 min",-2.1%
same,"Changes(%) of basal values, coronary sinus out flow","coronary sinus out flow; 6.0 mg/kg i.v., imm.",+74.5%
same,Effects on coronary sinus out flow (in words),"coronary sinus out flow; i.v., anesthetized dogs","increased markedly coronary sinus out flow immediately after administration, effect of which was, however, relatively transitory"
same,"Changes(%) of basal values, coronary sinus oxygen tension","[2]; 2.0 mg/kg i.v., 1 min",+1.4%
same,"Changes(%) of basal values, coronary sinus oxygen tension","[2]; 2.0 mg/kg i.v., 5 min",-1.1%
same,"Changes(%) of basal values, coronary sinus oxygen tension","[2]; 2.0 mg/kg i.v., 10 min",-1.4%
same,"Changes(%) of basal values, coronary sinus oxygen tension","[2]; 2.0 mg/kg i.v., 20 min",-0.8%
same,"Changes(%) of basal values, coronary sinus oxygen tension","[2]; 2.0 mg/kg i.v., 30 min",0%
same,"Changes(%) of basal values, coronary sinus oxygen tension","[2]; 2.0 mg/kg i.v., 40 min",0%
same,"Changes(%) of basal values, coronary sinus oxygen tension","[2]; 2.0 mg/kg i.v., imm.",+10.9%
same,"Changes(%) of basal values, coronary sinus oxygen tension","[2]; 6.0 mg/kg i.v., 1 min",+20.3%
same,"Changes(%) of basal values, coronary sinus oxygen tension","[2]; 6.0 mg/kg i.v., 5 min",+3.9%
same,"Changes(%) of basal values, coronary sinus oxygen tension","[2]; 6.0 mg/kg i.v., 10 min",+1.0%
same,"Changes(%) of basal values, coronary sinus oxygen tension","[2]; 6.0 mg/kg i.v., 20 min",-4.1%
same,"Changes(%) of basal values, coronary sinus oxygen tension","[2]; 6.0 mg/kg i.v., 30 min",-1.2%
same,"Changes(%) of basal values, coronary sinus oxygen tension","[2]; 6.0 mg/kg i.v., 40 min",-0.3%
same,"Changes(%) of basal values, coronary sinus oxygen tension","[2]; 6.0 mg/kg i.v., imm.",+20.1%
same,Effects on coronary sinus oxygen tension (in words),"[2]; i.v., anesthetized dogs",slightly transitory as compared with those of compounds as mentioned above
same,increased oxygen tension,"[2]; i.v., anesthetized dogs",about 20%
same,"Changes(%) of basal values, heart rate","heart rate; 2.0 mg/kg i.v., 1 min",+2.6%
same,"Changes(%) of basal values, heart rate","heart rate; 2.0 mg/kg i.v., 5 min",-1.5%
same,"Changes(%) of basal values, heart rate","heart rate; 2.0 mg/kg i.v., 10 min",-2.3%
same,"Changes(%) of basal values, heart rate","heart rate; 2.0 mg/kg i.v., 20 min",-1.8%
same,"Changes(%) of basal values, heart rate","heart rate; 2.0 mg/kg i.v., 30 min",-0.7%
same,"Changes(%) of basal values, heart rate","heart rate; 2.0 mg/kg i.v., 40 min",0%
same,"Changes(%) of basal values, heart rate","heart rate; 2.0 mg/kg i.v., imm.",+1.4%
same,"Changes(%) of basal values, heart rate","heart rate; 6.0 mg/kg i.v., 1 min",+3.7%
same,"Changes(%) of basal values, heart rate","heart rate; 6.0 mg/kg i.v., 5 min",-2.2%
same,"Changes(%) of basal values, heart rate","heart rate; 6.0 mg/kg i.v., 10 min",-3.6%
same,"Changes(%) of basal values, heart rate","heart rate; 6.0 mg/kg i.v., 20 min",-3.3%
same,"Changes(%) of basal values, heart rate","heart rate; 6.0 mg/kg i.v., 30 min",-2.0%
same,"Changes(%) of basal values, heart rate","heart rate; 6.0 mg/kg i.v., 40 min",-1.4%
same,"Changes(%) of basal values, heart rate","heart rate; 6.0 mg/kg i.v., imm.",-7.2%
same,Effects on heart rate (in words),"heart rate; i.v., anesthetized dogs",slight negative chronotropic effects accompanied by an increase in heart rate immediately after administration
